# Read-outs that look alike come from different tables or passages of the source.
# Key:
# [1] = test system: MDA-MB-231 breast cancer cells; experiment: XTT viability assay, MDA-MB-231; assay type: cell-based; conditions: Homo sapiens, read-out: metabolic active cells in % of control; for viability at 5 µg/mL: MDA-MB-231, 5 µg/mL; for viability at 5 µg/mL / viability at 50 µg/mL: 72 h; for viability at 50 µg/mL: MDA-MB-231, 50 µg/mL
# Procedure: (§1) Human CCRF-CEM leukemia and MDA-MB-231 breast cancer cells lines were kept in RPMI1640 medium (Gibco®, ThermoFisher Scientific Inc., New York, NY, USA), supplemented with 2 mM L-glutamine (Gibco®), 10% heat-inactivated foetal bovine serum (FBS, Gibco®), 100 units/mL Penicillin (PAA), and 100 µg/mL Streptomycin (Gibco®) (1% Pen/Strep). HCT-116 and U251 cells were cultured in high-glucose Dulbecco’s Modified Eagle Medium (DMEM, Gibco®) containing 2 mM L-glutamine, 10% FBS, and 1% Pen/Strep. MRC-5 cells were grown in Minimum Essential Medium (MEM, Gibco®) supplemented with 2 mM L-glutamine, 10% FBS, and 1% Pen/Strep. All cells were kept in a humidified 5% CO2 atmosphere at 37 °C and passaged at 90% confluence.
# (§2) A Cell Proliferation Kit II (XTT) was purchased from Sigma-Aldrich and performed as described previously and in accordance with the manufacturer’s protocol. In brief, adherent cell lines were seeded at a density of 50,000 cells/mL or 100,000 cells/mL (MRC-5) in 96 well plates (100 µL, flat bottom) and grown for 24 h before test compounds were added. Suspension cells (CCRF-CEM) were seeded at 100,000 cells/mL and test compounds were added immediately. After 72 h, XTT solution was added for another 90 min or 4 h (CCRF-CEM cells) and absorbance was measured at 490 nm with a reference wave length of 650 nm (Hidex Sense Microplate Reader 425-301, Hidex, Turku, Finland). Results are expressed as a percentage of the vehicle-treated (0.5% DMSO) control cells. Vinblastine served as the positive control (0.01 µg/mL).
# [2] = test system: L6 cells rat skeletal myoblasts; experiment: Cytotoxicity against L6 cells (Alamar Blue); assay type: cell-based; conditions: read-out: Cyt. L6 IC50
# Procedure: Assays were performed in 96-well microtiter plates, each well containing 100 μL of RPMI 1640 medium supplemented with 1% L-glutamine (200 mM) and 10% foetal bovine serum, and 4000 L6 cells (a […] cell line derived from rat skeletal myoblasts). Serial drug dilutions of 11 threefold dilution steps covering a range from 100 to 0.002 μg/mL were prepared. After 72 h of incubation, the plates were inspected under an inverted microscope to assure growth of the controls and sterile conditions. 10 μL of Alamar Blue solution was then added to each well and the plates incubated for another 2 h. Then, the plates were read with a Spectramax Gemini XS microplate fluorometer (Molecular Devices Cooperation, Sunnyvale, CA, USA) using an excitation wavelength of 536 nm and an emission wavelength of 588 nm. The IC50 values were calculated by linear regression from the sigmoidal dose inhibition curves using the microplate reader software, Softmax Pro (Molecular Devices Cooperation, Sunnyvale, CA, USA). Podophyllotoxin (Sigma P4405) was used as the control.
# U251 glioblastoma cells = experiment: XTT viability assay, U251; assay type: cell-based; conditions: Homo sapiens, U-251, read-out: metabolic active cells in % of control; for viability at 5 µg/mL: U251, 5 µg/mL; for viability at 5 µg/mL / viability at 50 µg/mL: 72 h; for viability at 50 µg/mL: U251, 50 µg/mL
# Procedure: as §1, §2
# [3] = test system: HCT-116 colon cancer cells; experiment: XTT viability assay, HCT-116; assay type: cell-based; conditions: Homo sapiens, read-out: metabolic active cells in % of control; for viability at 5 µg/mL: HCT 116, 5 µg/mL; for viability at 5 µg/mL / viability at 50 µg/mL: 72 h; for viability at 50 µg/mL: HCT 116, 50 µg/mL
# Procedure: as §1, §2
# [4] = test system: P. falciparum, strain NF54, erythrocytic stages; experiment: In vitro growth inhibition assay of Plasmodium falciparum NF54 ([3H]-hypoxanthine incorporation); assay type: cell-based; conditions: for IC50: Plasmodium falciparum; for SI (IC50 in L6 cells/IC50 P. falciparum): ratio IC50 L6 / IC50 P. falciparum NF54
# Procedure: In vitro activity against erythrocytic stages of P. falciparum was determined by a modified [^3H]-hypoxanthine incorporation assay using the drug-sensitive NF54 strain and the standard drug, chloroquine (Sigma C6628). Briefly, parasite cultures incubated in RPMI 1640 medium with 5% AlbuMAX^TM (without hypoxanthine) were exposed to serial drug dilutions in microtiter plates. After 48 h of incubation at 37 °C in a reduced oxygen atmosphere, 0.5 μCi [^3H]-hypoxanthine was added to each well of the plate. Cultures were incubated for a further 24 h before they were harvested onto glass-fiber filters and washed with distilled water. The radioactivity was counted using a Betaplate^TM liquid scintillation counter (Wallac, Zurich). The results were recorded as counts per minute (CPM) per well at each drug concentration and expressed as a percentage of the untreated controls. IC50 values were calculated from the sigmoidal inhibition curves using Microsoft Excel.
# [5] = test system: T. brucei rhodesiense, strain STIB900 trypomastigote forms; experiment: In vitro growth inhibition assay of Trypanosoma brucei rhodesiense (Alamar Blue); assay type: cell-based; conditions: for IC50: Trypanosoma brucei, 72 h, read-out: T.b.rhod. IC50; for SI (IC50 in L6 cells/IC50 T. b. rhodesiense): ratio IC50 L6 / IC50 T. b. rhodesiense STIB900
# Procedure: Trypanosoma brucei rhodesiense, STIB 900 strain, and the standard drug, melarsoprol, were used for the assay. Minimum Essential Medium (50 μL) supplemented with 25 mM HEPES, 1g/L additional glucose, 1% MEM non-essential amino acids (100×), 0.2 mM 2-mercaptoethanol, 1 mM Na-pyruvate, and 15% heat-inactivated horse serum was added to each well of a 96-well microtiter plate. Serial drug dilutions of 11 three-fold dilution steps covering a range from 100 to 0.002 μg/mL were prepared. Then, 4 × 10^3 bloodstream forms of T. b. rhodesiense (STIB 900) in 50 μL were added to each well and the plate was incubated at 37 °C under a 5% CO2 atmosphere for 72 h. 10 μL Alamar Blue (resazurin, 12.5 mg in 100 mL double-distilled water) was then added to each well and incubation continued for a further 2–4 h. Then, the plates were read with a Spectramax Gemini XS microplate fluorometer (Molecular Devices Cooperation, Sunnyvale, CA, USA) using an excitation wavelength of 536 nm and an emission wavelength of 588 nm. The IC50 values were calculated from the sigmoidal inhibition curves using the microplate reader software, Softmax Pro (Molecular Devices Cooperation, Sunnyvale, CA, USA). Melarsoprol was used as the control.
# CCRF-CEM leukemia cells = experiment: XTT viability assay, CCRF-CEM; assay type: cell-based; conditions: Homo sapiens, read-out: metabolic active cells in % of control; for viability at 5 µg/mL / viability at 50 µg/mL: 72 h
# Procedure: as §1, §2
# [6] = test system: MRC-5 non-tumorigenic lung fibroblasts; experiment: XTT viability assay, MRC-5; assay type: cell-based, human; conditions: Homo sapiens, MRC5, read-out: metabolic active cells in % of control; for viability at 5 µg/mL: MRC-5, 5 µg/mL; for viability at 5 µg/mL / viability at 50 µg/mL: 72 h; for viability at 50 µg/mL: MRC-5, 50 µg/mL
# Procedure: as §1, §2
# [7] = L6 rat skeletal myoblasts, 72 h
# [8] = strain NF54, erythrocytic stages, read-out: P. falc. IC50
# [9] = strain STIB900, trypomastigote forms
"IC50 [4, 8] [µM]","IC50 [5, 9] [µM]",melting point [°C],SMILES,viability at 5 µg/mL [1] [%],viability at 50 µg/mL [1] [%],"IC50 [2, 7] [µM]",viability at 5 µg/mL (U251 glioblastoma cells) [%],viability at 50 µg/mL (U251 glioblastoma cells) [%],viability at 5 µg/mL [3] [%],viability at 50 µg/mL [3] [%],viability at 5 µg/mL (CCRF-CEM leukemia cells) [%],viability at 50 µg/mL (CCRF-CEM leukemia cells) [%],viability at 5 µg/mL [6] [%],viability at 50 µg/mL [6] [%],SI (IC50 in L6 cells/IC50 P. falciparum) [4],SI (IC50 in L6 cells/IC50 T. b. rhodesiense) [5],other results
8.63,6.93,,"O=C1C=CC(O)(CCN2C(=O)CCC2=O)C=C1 [Compound 13c, N-[2-(1-Hydroxy-4-oxocyclohexa-2,5-dien-1-yl)ethyl]succinimide]",79.8,5.72,9.9,93.3,0.59,99,1.1,79.1,2.15,139,3.55,,,
3.78,1.58,161 to 162,"O=C1C=CC(O)(CCN2C(=O)c3ccccc3C2=O)C=C1 [Compound 13a, N-[2-(1-Hydroxy-4-oxocyclohexa-2,5-dien-1-yl)ethyl]phthalimide]",37.8,17.4,5.08,90.7,3.21,55.4,1.76,4.42,1.15,43.7,1.93,1.3,3.2,
74.4,2.26,168 to 169,"O=C1C=CC(O)(CCN2C(=O)C(Cl)=C(Cl)C2=O)C=C1 [Compound 13e, 3,4-Dichloro-N-[2-(1-hydroxy-4-oxocyclohexa-2,5-dien-1-yl)ethyl]maleimide]",81.3,9.53,10.3,95.6,1.95,45.3,-0.43,-2.6,0.59,97,0.38,0.1,4.5,
3.04,1.7,135 to 136,"O=C1C=CC(O)(CCN2C(=O)C3CCCCC3C2=O)C=C1 (centres unmarked) [Compound 13h, N-[2-(1-Hydroxy-4-oxocyclohexa-2,5-dien-1-yl)ethyl]hexahydrophthalimide]",70.8,16.4,2.96,74.9,0.18,44.3,0.49,15.7,0.69,57.6,0.76,1.0,1.7,
3.24,5.71,213 to 214,"O=C1C=CC(O)(CCN2C(=O)c3cc(Cl)c(Cl)cc3C2=O)C=C1 [Compound 13d, 4,5-Dichloro-N-[2-(1-hydroxy-4-oxocyclohexa-2,5-dien-1-yl)ethyl]phthalimide]",28.6,24.8,6.28,72.1,1.79,41.2,0.44,13.8,3.33,46.4,1.01,1.9,1.1,

# Second part, the compound before the results:
SMILES,"IC50 [4, 8] [µM]","IC50 [5, 9] [µM]",melting point [°C],viability at 5 µg/mL [1] [%],viability at 50 µg/mL [1] [%],"IC50 [2, 7] [µM]",viability at 5 µg/mL (U251 glioblastoma cells) [%],viability at 50 µg/mL (U251 glioblastoma cells) [%],viability at 5 µg/mL [3] [%],viability at 50 µg/mL [3] [%],viability at 5 µg/mL (CCRF-CEM leukemia cells) [%],viability at 50 µg/mL (CCRF-CEM leukemia cells) [%],viability at 5 µg/mL [6] [%],viability at 50 µg/mL [6] [%],SI (IC50 in L6 cells/IC50 P. falciparum) [4],SI (IC50 in L6 cells/IC50 T. b. rhodesiense) [5],other results
"Nc1nc(N)nc(Nc2ccc([As]3SCC(CO)S3)cc2)n1 (centres unmarked) [Mel., melarsoprol, reference compound]",,,,,,,,,,,,,,,,,IC50 [5]: 0.004 µM
"CC[C@]1(O)C[C@@H]2CN(CCc3c([nH]c4ccccc34)[C@@](C(=O)OC)(c3cc4c(cc3OC)N(C)[C@H]3[C@@](O)(C(=O)OC)[C@H](OC(C)=O)[C@]5(CC)C=CCN6CC[C@]43[C@@H]65)C2)C1 [VBN, Vinblastine, reference compound]",,,,,,,,,,,,,,,,,"viability at 0.01 µg/mL ([1]; MDA-MB-231, 0.01 µg/mL, positive control): 42 ± 7.97%; viability at 0.01 µg/mL (U251 glioblastoma cells; U251, 0.01 µg/mL, positive control): 45.3 ± 3.81%; viability at 0.01 µg/mL ([3]; HCT 116, 0.01 µg/mL, positive control): 39 ± 5.1%; viability at 0.01 µg/mL (CCRF-CEM leukemia cells; 0.01 µg/mL, positive control): 23.6 ± 7.62%; viability at 0.01 µg/mL ([6]; MRC-5, 0.01 µg/mL, positive control): 63.8 ± 5.29%"
"O=C1C=CC(O)(CCN2C(=O)C3CCCCC3C2O)C=C1 (centres unmarked) [Compound 15, 3-Hydroxy-N-[2-(1-hydroxy-4-oxocyclohexa-2,5-dien-1-yl)ethyl]octahydroisoindole-1-one]",6.18,1.52,127 to 128,105,6.05,12.6,97.6,2.24,111,1.44,42.4,0.57,135,4.47,2.0,8.3,
"COc1cc([C@@H]2c3cc4c(cc3[C@H](O)[C@H]3COC(=O)[C@H]23)OCO4)cc(OC)c1OC [Pod., podophyllotoxin, reference compound]",,,,,,,,,,,,,,,,,"IC50 ([2]; Rattus norvegicus, L6, 72 h): 0.007 µM"
"CCN(CC)CCCC(C)Nc1ccnc2cc(Cl)ccc12 (centres unmarked) [Chl., Chloroquine, reference compound]",,,,,,,,,,,,,,,,,"IC50 ([4]; NF54, read-out: P. falc. IC50): 0.002 µM"
